We go through 38 compounds from patent US9868748B2, “Thiazolopyrrolidine inhibitors of ROR- γ” (Vitae Pharmaceuticals, Inc., priority 2013, dated 2018).

For assay [1], the target named is full-length RORγt in Jurkat cells (Homo sapiens (Human), UniProt P51449). In words: RORγt 5xRORE Assay in Jurkat Cells (Assay 2). It is filed as cell-based. Particulars: Nanoluc luciferase reporter, 16-18 hrs. In a few lines:
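Jurkat cells co-transfected with full-length RORγt expression plasmid and a 5×RORE-driven secreted Nanoluc reporter, then plated at 80,000 cells/well in phenol-red-free RPMI with 10% delipidated FBS. Compounds added at 0.1% DMSO for 16–18 h at 37 °C; supernatant luciferase read for inverse agonism.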

Assay [2] deals with recombinant RORγ Ligand Binding Domain (LBD) protein (Homo sapiens (Human), UniProt P51449). In words: Radio-Ligand RORγ Binding Assay (Assay 1). Particulars: competition with 25-hydroxy [26,27-3H]-cholesterol, SPA, read-out: RORγ Binding Ki Range*. The method, boiled down: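 Scintillation proximity competition binding of 8.6 nM stock 25-hydroxy[26,27-3H]cholesterol to 24 nM stock 6×His-GST-tagged human RORγ LBD, in 50 mM HEPES pH 7.4 with NaCl, MgCl2, glycerol, CHAPS, β-octylglucopyranoside and DTT, room temperature. Inhibition referenced to DMSO and 10 μM T0901317; IC50 by four-parameter fit, converted to Ki using radioligand concentration and KD.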

Setting [3] is: Table 9, read-out: RORγt5X IC50 Range*.
[4] abbreviates: Table 8, read-out: RORγt5X IC50 Range*.

Read-outs that look alike come from different tables or passages of the source. Some results are limits rather than exact numbers.

Chain of recombinant RORγ Ligand Binding Domain (LBD) protein (P51449 269-508): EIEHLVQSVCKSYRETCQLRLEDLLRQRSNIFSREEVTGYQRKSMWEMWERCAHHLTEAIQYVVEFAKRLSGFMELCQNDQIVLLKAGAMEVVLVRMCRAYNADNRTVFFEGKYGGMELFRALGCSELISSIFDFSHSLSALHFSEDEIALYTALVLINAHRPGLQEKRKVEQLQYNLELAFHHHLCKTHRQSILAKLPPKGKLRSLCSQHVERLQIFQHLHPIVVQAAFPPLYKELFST
Chain of full-length RORγt in Jurkat cells (P51449 other isoform, or with tags, fused parts or gaps): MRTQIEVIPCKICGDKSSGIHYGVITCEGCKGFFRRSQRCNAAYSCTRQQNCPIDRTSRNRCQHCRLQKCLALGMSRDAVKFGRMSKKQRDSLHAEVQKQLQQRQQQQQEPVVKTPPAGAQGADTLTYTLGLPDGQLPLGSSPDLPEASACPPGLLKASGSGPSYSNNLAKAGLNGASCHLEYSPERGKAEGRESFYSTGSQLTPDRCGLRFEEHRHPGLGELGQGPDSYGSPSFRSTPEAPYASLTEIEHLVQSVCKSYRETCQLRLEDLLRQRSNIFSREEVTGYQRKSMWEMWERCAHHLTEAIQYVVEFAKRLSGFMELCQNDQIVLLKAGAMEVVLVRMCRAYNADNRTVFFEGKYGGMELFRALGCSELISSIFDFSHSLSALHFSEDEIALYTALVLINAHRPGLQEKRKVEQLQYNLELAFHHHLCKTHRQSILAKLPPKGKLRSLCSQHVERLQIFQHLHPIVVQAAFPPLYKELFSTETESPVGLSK

As usually defined, the IC50 is the concentration that gives 50% inhibition. Broadly, the Ki is the dissociation constant of the complex between target and ligand, obtained from inhibition or displacement. As for `CCS(=O)(=O)c1ccc(CC(=O)Nc2nc3c(s2)CN([C@H](C)Cc2ccc(Cl)cc2)[C@H]3C(C)C)cc1` (single isomer, unassigned), the half-maximal inhibitory concentration (IC50) in assay [1] (setting [3]) is above 1 µM. The Ki in assay [2] (Table 9) is below 0.1 µM.

On to `CC(C)[C@H]1c2nc(NS(=O)(=O)c3ccc(CC(=O)O)cc3)sc2CN1Cc1ccc(C#N)c(F)c1` [I-D2, (S)-2-(4-(N-(5-(4-cyano-3-fluorobenzyl)-4-isopropyl-5,6-dihydro-4H-pyrrolo[3,4-d]thiazol-2-yl)sulfamoyl)phenyl)acetic acid], for which the IC50 in assay [1] (setting [4]) was above 1 µM. The Ki in assay [2] (Table 8) is below 0.1 µM.

With `CC(C)[C@H]1c2nc(NC(=O)Cc3ccc(C(C)(C)C#N)cc3)sc2CN1Cc1ccc(Cl)cc1`, the concentration for half-maximal inhibition (IC50) in assay [1] (setting [3]) is 0.1 to 1 µM. The Ki in assay [2] (Table 9) was below 0.1 µM.

Take `CCS(=O)(=O)c1ccc(CC(=O)Nc2nc3c(s2)CN(C(C)c2cccc(C(F)(F)F)c2)[C@@H]3C(C)C)cc1` (stereo partly shown): the IC50 in assay [1] (setting [3]) is above 1 µM. Further, the Ki in assay [2] (Table 9) was below 0.1 µM.

As to `CCS(=O)(=O)c1ccc(CC(=O)Nc2nc3c(s2)CN(CC2CCN(CC(F)(F)F)CC2)[C@H]3C(C)C)cc1` [I-A20, (S)-2-(4-(ethylsulfonyl)phenyl)-N-(4-isopropyl-5-((1-(2,2,2-trifluoroethyl)piperidin-4-yl)methyl)-5,6-dihydro-4H-pyrrolo[3,4-d]thiazol-2-yl)acetamide], in assay [1] (setting [4]), the IC50 is below 0.1 µM. Also, the Ki in assay [2] (Table 8) was below 0.1 µM.

Turning to `CC(C)[C@H]1c2nc(NS(=O)(=O)c3ccc(CC(=O)O)cc3)sc2CN1Cc1ccc(C#N)c(F)c1` [drawing 411], in assay [1] (setting [3]), the IC50 was above 1 µM. For the same compound, in assay [2] (Table 9), the Ki is below 0.1 µM.

As for `CCS(=O)(=O)c1ccc(CC(=O)Nc2nc3c(s2)CN(Cc2ccc(=O)n(C4CC4)c2)[C@H]3C(C)C)cc1`, the IC50 in assay [1] (setting [3]) was 0.1 to 1 µM. Besides, in assay [2] (Table 9), the Ki is below 0.1 µM.

As to `CCS(=O)(=O)c1ccc(CC(=O)Nc2nc3c(s2)CN([C@@H](C)Cc2ccc(Cl)cc2)[C@H]3C(C)C)cc1`, the IC50 in assay [1] (setting [3]) was 0.1 to 1 µM. The Ki in assay [2] (Table 9) was below 0.1 µM.

For the compound `CC(C)[C@H]1c2nc(NC(=O)Cc3ccc(S(N)(=O)=O)cc3)sc2CN1Cc1ccc(C(F)(F)F)cc1`, the IC50 in assay [1] (setting [3]) was below 0.1 µM. Also, the inhibition constant (Ki) in assay [2] (Table 9) is below 0.1 µM.

In the case of `CCS(=O)(=O)c1ccc(CC(=O)Nc2nc3c(s2)CN(Cc2ccc(C(=O)O)cc2)[C@H]3C(C)C)cc1`, the IC50 in assay [1] (setting [3]) is 0.1 to 1 µM. The Ki in assay [2] (Table 9) is below 0.1 µM.

Consider `CCS(=O)(=O)c1ccc(CC(=O)Nc2nc3c(s2)CN(CC2CCS(=O)(=O)CC2)[C@H]3C(C)C)cc1`, for which, in assay [1] (setting [3]), the IC50 was above 1 µM. The inhibition constant Ki in assay [2] (Table 9) was below 0.1 µM.

In the case of `CC(C)[C@H]1c2nc(NC(=O)Cc3ccc(-c4nnn[nH]4)cc3)sc2CN1Cc1ccc(Cl)cc1`, the IC50 in assay [1] (setting [3]) is above 1 µM. The Ki in assay [2] (Table 9) was 0.1 to 1 µM.

On to `CC[C@H](C)C1c2nc(C(=O)NCc3ccc(S(C)(=O)=O)cc3)sc2CN1Cc1ccc(OC(F)F)cc1` (stereo partly shown), for which, in assay [1] (setting [3]), the half-maximal inhibitory concentration (IC50) lay in the range of 0.1 to 1 µM. The inhibition constant (Ki) in assay [2] (Table 9) was below 0.1 µM.

On to `CC(C)[C@H]1c2nc(NC(=O)Cc3ccc(S(C)(=O)=O)cc3)sc2CN1[C@H](C)c1ccc(C#N)cc1Cl`, for which the IC50 in assay [1] (setting [3]) fell in the range of 0.1 to 1 µM. The Ki in assay [2] (Table 9) was below 0.1 µM.

For the compound `CC(C)[C@H]1c2nc(NC(=O)Cc3ccc(S(C)(=O)=O)cc3)sc2CN1[C@@H](C)c1ccc(C#N)cc1` [I-B15], the IC50 in assay [1] (setting [4]) was below 0.1 µM. Besides, the inhibition constant Ki in assay [2] (Table 8) is below 0.1 µM.

`CCS(=O)(=O)c1ccc(CC(=O)Nc2nc3c(s2)CN(Cc2ccc4c(c2)CCO4)[C@H]3C(C)C)cc1`: the IC50 in assay [1] (setting [3]) is above 1 µM. In addition, the Ki in assay [2] (Table 9) is below 0.1 µM.

Take `CCS(=O)(=O)c1ccc(CC(=O)Nc2nc3c(s2)CN(C[C@@H]2CC[C@@H](C(F)(F)F)N(C4CC4)C2)[C@H]3C(C)C)cc1` (single isomer, unassigned): in assay [1] (setting [3]), the IC50 is above 1 µM. Further, the Ki in assay [2] (Table 9) is below 0.1 µM.

For the compound `CC(C)[C@@H]1c2nc(NC(=O)Cc3ccc(S(C)(=O)=O)cc3)sc2CN1[C@H](C)c1ccc(C(F)(F)F)cc1` (single isomer, unassigned), the IC50 in assay [1] (setting [3]) was in the range of 0.1 to 1 µM. Also, the Ki in assay [2] (Table 9) is 0.1 to 1 µM.

In the case of `CCS(=O)(=O)c1ccc(CC(=O)Nc2nc3c(s2)CN([C@H](C)Cc2ccccc2C(F)(F)F)[C@@H]3C(C)C)cc1`, the IC50 in assay [1] (setting [3]) is above 1 µM. The Ki in assay [2] (Table 9) was below 0.1 µM.

Regarding `CC(C)[C@H]1c2nc(NC(=O)Cc3ccc(C(N)=O)cc3)sc2CN1Cc1ccc(Cl)cc1`, the IC50 in assay [1] (setting [3]) fell in the range of 0.1 to 1 µM. In addition, the Ki in assay [2] (Table 9) was below 0.1 µM.

With `CCS(=O)(=O)c1ccc(CC(=O)Nc2nc3c(s2)CN(C[C@H]2CC[C@@H](C(F)(F)F)OC2)[C@H]3C(C)C)cc1` (single isomer, unassigned), in assay [1] (setting [3]), the IC50 was above 1 µM. In addition, the Ki in assay [2] (Table 9) is below 0.1 µM.

Consider `CCS(=O)(=O)c1ccc(CC(=O)Nc2nc3c(s2)CN([C@H](C)c2ccc(C(F)(F)F)cc2)[C@H]3C(C)C)cc1` [I-A34], for which the IC50 in assay [1] (setting [4]) was below 0.1 µM. Besides, the Ki in assay [2] (Table 8) is below 0.1 µM.

`CCS(=O)(=O)c1ccc(CC(=O)Nc2nc3c(s2)CN(C[C@@H]2CC[C@@H](C(F)(F)F)N(C)C2)[C@H]3C(C)C)cc1` [I-A29]: the half-maximal inhibitory concentration (IC50) in assay [1] (setting [4]) was below 0.1 µM. Also, the Ki in assay [2] (Table 8) is below 0.1 µM.

For the compound `CCS(=O)(=O)c1cnc(CC(=O)Nc2nc3c(s2)CN(Cc2ccc(C(F)(F)F)cc2)[C@H]3C(C)C)nc1`, the IC50 in assay [1] (setting [3]) was 0.1 to 1 µM. Besides, in assay [2] (Table 9), the Ki was below 0.1 µM.

For `CCS(=O)(=O)c1ccc(CNC(=O)c2nc3c(s2)CN(C[C@H]2CN(C(=O)OC(C)(C)C)CCO2)[C@H]3C(C)C)cc1` (relative stereo), in assay [1] (setting [3]), the IC50 was 0.1 to 1 µM. The Ki in assay [2] (Table 9) was below 0.1 µM.

On to `CC(C)[C@H]1c2nc(NC(=O)Cc3ccc(S(C)(=O)=O)cc3)sc2CN1Cc1ccc(C#N)c(Cl)c1` [I-B8], for which the IC50 in assay [1] (setting [4]) was below 0.1 µM. Moreover, the Ki in assay [2] (Table 8) was below 0.1 µM.

With `CC1(C)c2nc(NC(=O)Cc3ccc(S(C)(=O)=O)cc3)sc2CN1c1nccc(C(F)(F)F)n1`, the IC50 in assay [1] (setting [3]) is above 1 µM. The Ki in assay [2] (Table 9) was in the range of 0.1 to 1 µM.

For the compound `CC(C)[C@H]1c2nc(NC(=O)Cc3ccccc3)sc2CN1Cc1ccc(Cl)cc1`, the IC50 in assay [1] (setting [3]) was above 1 µM. Besides, in assay [2] (Table 9), the Ki was in the range of 0.1 to 1 µM.

In the case of `CC(C)[C@H]1c2nc(NC(=O)Cc3ccc(S(C)(=O)=O)cc3)sc2CN1Cc1ccc(-c2nnnn2C)cc1`, the concentration for half-maximal inhibition (IC50) in assay [1] (setting [3]) is below 0.1 µM. For the same compound, the Ki in assay [2] (Table 9) was below 0.1 µM.

Regarding `CCS(=O)(=O)c1ccc(CC(=O)Nc2nc3c(s2)CN(C[C@H]2CN(C(=O)OC(C)(C)C)CCO2)[C@H]3C(C)C)cc1` [I-A41], in assay [1] (setting [4]), the IC50 is below 0.1 µM. Also, the Ki in assay [2] (Table 8) was below 0.1 µM.

Turning to `CCS(=O)(=O)c1ccc(CC(=O)Nc2nc3c(s2)CN(Cc2ccc(C#N)cc2)[C@H]3C(C)C)nc1` [I-C11], the IC50 in assay [1] (setting [4]) was below 0.1 µM. Besides, in assay [2] (Table 8), the Ki is below 0.1 µM.

Take `CCS(=O)(=O)c1ccc(CC(=O)Nc2nc3c(s2)CN(Cc2cc(C(F)(F)F)cc(C(F)(F)F)c2)[C@@H]3C(C)C)cc1`: the IC50 in assay [1] (setting [3]) is above 1 µM. In addition, the Ki in assay [2] (Table 9) is below 0.1 µM.

For the compound `CC(C)[C@H]1c2nc(NC(=O)Cc3ccc(S(C)(=O)=O)cc3)sc2CN1Cc1ccc(C(F)(F)F)cn1` [I-B4], the IC50 in assay [1] (setting [4]) is below 0.1 µM. In addition, the inhibitory constant (Ki) in assay [2] (Table 8) was below 0.1 µM.

On to `CCS(=O)(=O)c1ccc(CC(=O)Nc2nc3c(s2)CN(C[C@H]2CC[C@@](C)(C#N)CC2)[C@H]3C(C)C)nc1` (single isomer, unassigned), for which the IC50 in assay [1] (setting [3]) lay within 0.1 to 1 µM. In addition, in assay [2] (Table 9), the Ki was below 0.1 µM.

Consider `CCS(=O)(=O)c1ccc(CC(=O)Nc2nc3c(s2)CN(Cc2ccc(C(F)(F)F)cc2)[C@@H]3C(C)C)cc1`, for which the IC50 in assay [1] (setting [3]) fell in the range of 0.1 to 1 µM. Also, in assay [2] (Table 9), the Ki was below 0.1 µM.

As to `CCS(=O)(=O)c1ccc(CC(=O)Nc2nc3c(s2)CN(Cc2cc(Cl)ccc2Cl)[C@@H]3C(C)C)cc1`, in assay [1] (setting [3]), the IC50 was above 1 µM. Also, the Ki in assay [2] (Table 9) was below 0.1 µM.

For `CCS(=O)(=O)c1ccc(CC(=O)Nc2nc3c(s2)CN(Cc2ccc(C(F)(F)F)nc2)[C@H]3C(C)C)cc1` [I-A62], the IC50 in assay [1] (setting [4]) was below 0.1 µM. The Ki in assay [2] (Table 8) was below 0.1 µM.

With `CCS(=O)(=O)c1ccc(CNC(=O)c2nc3c(s2)CN(C[C@H]2CC[C@H](C(F)(F)F)CC2)[C@H]3C(C)C)cc1` (relative stereo), in assay [1] (setting [3]), the IC50 was 0.1 to 1 µM. Further, the Ki in assay [2] (Table 9) is below 0.1 µM.
